Data: PMC3767473 (Angewandte Chemie (International ed. in English), 2013)
Numbered stars: 1 amine (or outer) side, 2 acyl side, 3 side chain; on linkers, the order of the positions; unused ones are H or OH. Bridge positions count the residues as written; N and C are the ends. Square brackets hold non-standard residues; d marks the D form. Side chains are listed from the residue outwards. Peptide text beside a SMILES is read from it. * marks the point of attachment. X1 = O=C([C@H](Cc1ccc(-n2nnc3c2-c2ccccc2CN([*:3])c2ccccc2-3)cc1)N[*:1])[*:2]; X2 = Cc1c(CC(=O)*)c(=O)oc2cc(N)ccc12; βAla = NCCC(=O)O

Tests used:
[1] = system: porcine pancreatic trypsin; assay: Binding to commercial porcine pancreatic trypsin; settings: Fig. S8
[2] = cited from earlier work

Row | Molecule | binding to porcine pancreatic trypsin ([1]; commercial trypsin) | effect of the fluorophore in loop 2 on biological activity ([1]; trypsin binding) | oral uterotonic activity [2]
1 | CC[C@H](C)[C@@H]1NC(=O)[C@@H]2CSSC[C@@H]3NC(=O)[C@H](C(C)C)NC(=O)CNC(=O)CNC(=O)[C@H](CC(=O)O)NC(=O)[C@H](CO)NC(=O)CNC(=O)[C@H](CO)NC(=O)CNC(=O)[C@@H]4CSSC[C@H](NC(=O)[C@H](CC(=O)O)NC(=O)[C@H](CO)NC(=O)[C@H](Cc5ccc(-n6nnc7c6-c6ccccc6CN(C(=O)CCNC(=O)Cc6c(C)c8ccc(N)cc8oc6=O)c6ccccc6-7)cc5)NC(=O)[C@H](CCCNC(=N)N)NC(=O)[C@H](CCCNC(=N)N)NC(=O)[C@H](CSSC[C@H](NC1=O)C(=O)N[C@@H](CCCNC(=N)N)C(=O)NCC(=O)N[C@@H](CC(N)=O)C(=O)NCC(=O)N[C@@H](Cc1ccc(O)cc1)C(=O)N4)NC(=O)[C@H](CCCNC(=N)N)NC(=O)[C@H](CCC(N)=O)NC(=O)[C@H](CC(C)C)NC(=O)[C@H]([C@@H](C)CC)NC(=O)[C@H](CCCCN)NC(=O)[C@@H]1CCCN1C3=O)C(=O)N1CCC[C@H]1C(=O)NCC(=O)N[C@@H](C)C(=O)N2 [AMCA-labeled MCoTI-AziF] (cyclo(ACICRGNGYCGSGSDGGVCPKILQRCRR[X1]([βAla-X2])SDCPG); disulfide 2-19, 4-26, 10-32) | able to bind commercial porcine pancreatic trypsin efficiently | did not have a detrimental effect on its biological activity | 
2 | kalata B1: the first cyclotide to be discovered (GLPVCGETCVGGTCNTPGCTCSWPVCTRN; Kalata-B1; UniProt P56254 89-117, looked up) |  |  | orally effective uterotonic
